{"source": "BindingDB's records for doi:10.1021/acschembio.6b01129", "about": "(Promega Biosciences LLC, 2017)", "note": "pIC50: −log10 of the molar value. Where a name gives a salt, the structure may show the parent alone.", "data": [{"target": "Oplophorus-luciferin 2-monooxygenase catalytic subunit (Oplophorus gracilirostris, UniProt Q9GV45)", "sequence (Q9GV45 whole entry)": "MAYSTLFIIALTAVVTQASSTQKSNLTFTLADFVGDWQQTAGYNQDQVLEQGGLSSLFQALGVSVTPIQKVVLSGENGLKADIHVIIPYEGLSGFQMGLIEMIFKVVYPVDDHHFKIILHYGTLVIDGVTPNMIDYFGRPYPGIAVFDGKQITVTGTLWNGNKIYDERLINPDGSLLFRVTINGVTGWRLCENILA", "assay": "NanoLuc Inhibition Assay", "description": "NanoLuc enzyme was diluted to 0.4 ng/mL in CO2 independent media + 10% FBS to make the detection reagent. A 3× dilution series of each inhibitor was then made in the detection reagent. A \"no inhibitor\" control was also made for each sample. A total of 50 μL of each inhibitor dilution was mixed with 50 μL of NanoGlo buffer containing 20 μM furimazine (final furimazine concentration is 10 μM, which is atKM), and luminescence was measured. Each sample was normalized to the \"no inhibitor\" control.", "values": [{"smiles": "CCN(C(=O)Cn1c(C(=O)N2CCCC2)cc2sccc21)c1cccc(C)c1", "note": "[N-ethyl-2-(5-(pyrrolidine-1-carbonyl)-4H-thieno[3,2-b]pyrrol-4-yl)-N-(m-tolyl)acetamide (6)]", "pIC50": 5.92}, {"smiles": "CCN(C(=O)Cn1c(C(=O)NC2CCC(C(=O)NCCN(C)C)CC2)cc2sccc21)c1cccc(C)c1", "note": "(trans isomer) [N-(trans-4-((2-(dimethylamino)ethyl)carbamoyl)cyclohexyl)-4-(2-(ethyl(m-tolyl)amino)-2oxoethyl)-4H-thieno[3,2-b]pyrrole-5-carboxamide (36)]", "pIC50": 4.75}, {"smiles": "CCN(C(=O)Cn1c(C(=O)NC2CCC(C(=O)NCCCCCCO)CC2)cc2sccc21)c1cccc(C)c1", "note": "(stereo not drawn) [4-(2-(Ethyl(m-tolyl)amino)-2-oxoethyl)-N-(trans-4-((6-hydroxyhexyl)carbamoyl)cyclohexyl)4H-thieno[3,2-b]pyrrole-5-carboxamide (39)]", "pIC50": 7.52}, {"smiles": "CCN(C(=O)Cn1c(C(=O)N[C@H]2CC[C@H](C(=O)OC)CC2)cc2sccc21)c1cccc(C(N)=O)c1", "note": "[Methyl trans-4-(4-(2-((3-carbamoylphenyl)(ethyl)amino)-2-oxoethyl)-4H-thieno[3,2-b]pyrrole5-carboxamido)cyclohexane-1-carboxylate (27)]", "pIC50": 6.62}, {"smiles": "CCN(C(=O)Cn1c(C(=O)NC2CCC(C(=O)NCCCCCCCC(=O)O)CC2)cc2sccc21)c1cccc(C)c1", "note": "(stereo not drawn) [8-(trans-4-(4-(2-(Ethyl(m-tolyl)amino)-2-oxoethyl)-4H-thieno[3,2-b]pyrrole-5carboxamido)cyclohexane-1-carboxamido)octanoic acid (42)]", "pIC50": 7.51}, {"smiles": "Cc1cccc(NC(=O)Cn2c(C(=O)NC3CCCCC3)cc3sccc32)c1", "note": "[N-cyclohexyl-4-(2-oxo-2-(m-tolylamino)ethyl)-4H-thieno[3,2-b]pyrrole-5-carboxamide (13)]", "pIC50": 4.34}, {"smiles": "CCN(C(=O)Cn1c(C(=O)N[C@H]2CC[C@H](C(=O)NCCCCCCNC(=O)[C@H](CC(=O)O)NC(=O)[C@H](CC(=O)O)NC(=O)[C@H](CC(=O)O)NC(C)=O)CC2)cc2sccc21)c1cccc(C)c1", "note": "[(11S,14S,17S)-17-Acetamido-11,14-bis(carboxymethyl)-1-(trans-4-(4-(2-(ethyl(m-tolyl)amino)2-oxoethyl)-4H-thieno[3,2-b]pyrrole-5-carboxamido)cyclohexyl)-1,10,13,16-tetraoxo-2,9,12,15tetraazanonadecan-19-oic acid (46)]", "pIC50": 7.18}, {"smiles": "CCN(C(=O)Cn1c(C(=O)NC2CCC(C(=O)NCCCCCCN)CC2)cc2sccc21)c1cccc(C)c1", "note": "(stereo not drawn) [N-(trans-4-((6-aminohexyl)carbamoyl)cyclohexyl)-4-(2-(ethyl(m-tolyl)amino)-2-oxoethyl)-4Hthieno[3,2-b]pyrrole-5-carboxamide hydrochloride (40)]", "pIC50": 7.20}, {"smiles": "CCCCNC(=O)C1CCC(NC(=O)c2cc3sccc3n2CC(=O)N(CC)c2cccc(C)c2)CC1", "note": "(stereo not drawn) [N-(trans-4-(butylcarbamoyl)cyclohexyl)-4-(2-(ethyl(m-tolyl)amino)-2-oxoethyl)-4H-thieno[3,2b]pyrrole-5-carboxamide (34)]", "pIC50": 6.52}, {"smiles": "COCCOCCN(C(=O)Cn1c(C(=O)NC2CCCCC2)cc2sccc21)c1cccc(C)c1", "note": "[N-cyclohexyl-4-(2-((2-(2-methoxyethoxy)ethyl)(m-tolyl)amino)-2-oxoethyl)-4H-thieno[3,2b]pyrrole-5-carboxamide (14)]", "pIC50": 4.78}, {"smiles": "CCN(C(=O)Cn1c(C(=O)NC2CCC(C(=O)NCCO)CC2)cc2sccc21)c1cccc(C)c1", "note": "(stereo not drawn) [4-(2-(Ethyl(m-tolyl)amino)-2-oxoethyl)-N-(trans-4-((2-hydroxyethyl)carbamoyl)cyclohexyl)-4Hthieno[3,2-b]pyrrole-5-carboxamide (35)]", "pIC50": 6.08}, {"smiles": "CCN(C(=O)Cn1c(C(=O)N[C@H]2CC[C@H](C(=O)OC)CC2)cc2ccccc21)c1cccc(C)c1", "note": "[Methyl trans-4-(1-(2-(ethyl(m-tolyl)amino)-2-oxoethyl)-1H-indole-2-carboxamido)cyclohexane1-carboxylate (29)]", "pIC50": 7.44}, {"smiles": "CCN(C(=O)Cn1c(C(=O)N[C@H]2CC[C@H](C(=O)OC)CC2)cc2sccc21)c1ccccc1C", "note": "[Methyl trans-4-(4-(2-(ethyl(o-tolyl)amino)-2-oxoethyl)-4H-thieno[3,2-b]pyrrole-5carboxamido)cyclohexane-1-carboxylate (19)]", "pIC50": 6.16}, {"smiles": "CCCCCCNC(=O)C1CCC(NC(=O)c2cc3sccc3n2CC(=O)N(CC)c2cccc(C)c2)CC1", "note": "(trans isomer) [4-(2-(Ethyl(m-tolyl)amino)-2-oxoethyl)-N-(trans-4-(hexylcarbamoyl)cyclohexyl)-4H-thieno[3,2b]pyrrole-5-carboxamide (38)]", "pIC50": 6.80}, {"smiles": "CCN(C(=O)Cn1c(C(=O)N[C@H]2CC[C@H](C(=O)OC)CC2)cc2sccc21)c1cccc(C)c1", "note": "[trans-Methyl-4-(4-(2-(ethyl(m-tolyl)amino)-2-oxoethyl)-4H-thieno[3,2-b]pyrrole-5carboxamido)cyclohexane-1-carboxylate (8)]", "pIC50": 6.82}, {"smiles": "CCCCCCN(C(=O)Cn1c(C(=O)NC2CCCCC2)cc2sccc21)c1cccc(C)c1", "note": "[N-cyclohexyl-4-(2-(hexyl(m-tolyl)amino)-2-oxoethyl)-4H-thieno[3,2-b]pyrrole-5-carboxamide (16)]", "pIC50": 5.25}, {"smiles": "COC(=O)[C@H]1CC[C@H](NC(=O)c2cc3sccc3n2CC(=O)N2CCCc3cc(C)ccc32)CC1", "note": "[Methyl trans-4-(4-(2-(6-methyl-3,4-dihydroquinolin-1(2H)-yl)-2-oxoethyl)-4Hthieno[3,2-b]pyrrole-5-carboxamido)cyclohexane-1-carboxylate (21)]", "pIC50": 4.69}, {"smiles": "CCN(C(=O)Cn1c(C(=O)N[C@H]2CC[C@H](C(=O)OC)CC2)cc2ccc(OC)cc21)c1cccc(C)c1", "note": "[Methyl trans-4-(1-(2-(ethyl(m-tolyl)amino)-2-oxoethyl)-6-methoxy-1H-indole-2carboxamido)cyclohexane-1-carboxylate (30)]", "pIC50": 5.47}, {"smiles": "CCN(C(=O)Cn1c(C(=O)N[C@H]2CC[C@H](C(=O)NCCCCCCNC(=O)c3ccc4c(c3)C3(OC4)c4ccc(O)cc4Oc4cc(O)ccc43)CC2)cc2sccc21)c1cccc(C)c1", "note": "[N-(trans-4-((6-(3',6'-dihydroxy-3-oxo-3H-spiro[isobenzofuran-1,9'-xanthene]-5(6)carboxamido)hexyl)carbamoyl)cyclohexyl)-4-(2-(ethyl(m-tolyl)amino)-2-oxoethyl)-4Hthieno[3,2-b]pyrrole-5-carboxamide (47)]", "pIC50": 7.31}, {"smiles": "CCN(C(=O)Cn1cccc1C(=O)N[C@H]1CC[C@H](C(=O)OC)CC1)c1cccc(C)c1", "note": "[Methyl trans-4-(1-(2-(ethyl(m-tolyl)amino)-2-oxoethyl)-1H-pyrrole-2carboxamido)cyclohexane-1-carboxylate (28)]", "pIC50": 5.11}, {"smiles": "CCN(C(=O)Cn1c(C(=O)N[C@H]2CC[C@@H](C(=O)OC)CC2)cc2sccc21)c1cccc(C)c1", "note": "[Methyl-cis-4-(4-(2-(ethyl(m-tolyl)amino)-2-oxoethyl)-4H-thieno[3,2-b]pyrrole-5carboxamido)cyclohexane-1-carboxylate (9)]", "pIC50": 6.64}, {"smiles": "CCN(C(=O)Cn1c(C(=O)NC2CCC(C(=O)NCCCCCCS(=O)(=O)O)CC2)cc2sccc21)c1cccc(C)c1", "note": "(trans isomer) [Sodium 6-(trans-4-(4-(2-(ethyl(m-tolyl)amino)-2-oxoethyl)-4H-thieno[3,2-b]pyrrole-5carboxamido)cyclohexane-1-carboxamido)hexane-1-sulfonate (43)]", "pIC50": 7.15}, {"smiles": "CCc1cccc(N(CC)C(=O)Cn2c(C(=O)N[C@H]3CC[C@H](C(=O)OC)CC3)cc3ccccc32)c1", "note": "[Methyl trans-4-(1-(2-(ethyl(3-ethylphenyl)amino)-2-oxoethyl)-1H-indole-2carboxamido)cyclohexane-1-carboxylate (33)]", "pIC50": 8.27}, {"smiles": "CCN(C(=O)Cn1c(C(=O)NC2CCC(C(=O)NCCCCCC(=O)O)CC2)cc2sccc21)c1cccc(C)c1", "note": "(stereo not drawn) [6-(trans-4-(4-(2-(Ethyl(m-tolyl)amino)-2-oxoethyl)-4H-thieno[3,2-b]pyrrole-5carboxamido)cyclohexane-1-carboxamido)hexanoic acid (41)]", "pIC50": 7.03}, {"smiles": "CCN(C(=O)Cn1c(C(=O)NC2CCC(C(=O)NCCCC(=O)O)CC2)cc2sccc21)c1cccc(C)c1", "note": "(trans isomer) [4-(trans-4-(4-(2-(Ethyl(m-tolyl)amino)-2-oxoethyl)-4H-thieno[3,2-b]pyrrole-5carboxamido)cyclohexane-1-carboxamido)butanoic acid (37)]", "pIC50": 6.05}, {"smiles": "CCN(C(=O)Cn1c(C(=O)Nc2cccc(C(=O)OC)c2)cc2sccc21)c1cccc(C)c1", "note": "[Methyl 3-(4-(2-(ethyl(m-tolyl)amino)-2-oxoethyl)-4H-thieno[3,2-b]pyrrole-5carboxamido)benzoate (11)]", "pIC50": 4.97}, {"smiles": "CCN(C(=O)Cn1c(C(=O)N[C@H]2CC[C@H](C(=O)OC)CC2)cc2sccc21)c1cccc(C(C)C)c1", "note": "(mixture of isomers) [Methyl trans-4-(4-(2-(ethyl(3-isopropylphenyl)amino)-2-oxoethyl)-4H-thieno[3,2-b]pyrrole-5carboxamido)cyclohexane-1-carboxylate (23)]", "pIC50": 6.89}, {"smiles": "CCN(C(=O)Cn1c(C(=O)N[C@H]2CC[C@H](C(=O)OC)CC2)cc2occc21)c1cccc(C)c1", "note": "[Methyl trans-4-(4-(2-(ethyl(m-tolyl)amino)-2-oxoethyl)-4H-furo[3,2-b]pyrrole-5carboxamido)cyclohexane-1-carboxylate (31)]", "pIC50": 6.23}, {"smiles": "CCN(C(=O)Cn1c(C(=O)N2CCCCC2)cc2sccc21)c1cccc(C)c1", "note": "[N-ethyl-2-(5-(piperidine-1-carbonyl)-4H-thieno[3,2-b]pyrrol-4-yl)-N-(m-tolyl)acetamide (7)]", "pIC50": 5.59}, {"smiles": "CCOC(=O)Cc1ccc(NC(=O)c2cc3sccc3n2CC(=O)N(CC)c2cccc(C)c2)cc1", "note": "[Ethyl 2-(4-(4-(2-(ethyl(m-tolyl)amino)-2-oxoethyl)-4H-thieno[3,2-b]pyrrole-5carboxamido)phenyl)acetate (12)]", "pIC50": 5.33}]}]}
